Results published in patent US20170258770A1, “Method for Topically Treating Actinic Keratosis on the Full Face or 250 cm2 on the Chest with Ingenol 3-(3,5-diethylisoxazole-4-carboxylate)” (LEO Laboratories Limited, priority 2014, published 2017).

What was measured:
[1] = test system: actinic keratosis; experiment: Part 2 open-label trial, 0.018% gel once daily for three consecutive days, full face or 250 cm^2 chest, actinic keratosis; assay type: in vivo, human subjects; conditions: 3 consecutive days
Procedure: Part 2 is a study of the efficacy of the 0.018% dose identified in part 1 in a three day regimen.
In contrast to other similar trials conducted, this trial allows inclusion in the trial of hypertrophic and hyperkeratotic lesion, and separately, the efficacy for these lesions are evaluated.
The outcome for Part 2 is safety and efficacy in a once daily application for three consecutive days on the face/chest. The efficacy in treating of the AK will be measured as reduction in AK count in the treated area of lesions which are not considered hyperkeratotic/hypertrophic.
The reduction in AK count will be performed at week 4 and 8 no matter the type of lesion. Also complete clearance of AKs in the treated area which are not considered hyperkeratotic/hypertrophic at week 8 will be measured.
The trial medication applied is preferably a gel. The gel formulation comprises: isopropyl alcohol, hydroxyethyl cellulose, benzyl alcohol, citric acid monohydrate, sodium citrate dehydrate and water and active compound in a 0.018% concentration. For this particular trial, the dosing is two unit dose tubes daily, each containing 0.67 g.
To qualify for part 2 of the trial, the subjects must have 5-20 clinically visible and discrete AKs within full face or 250 cm^2 area on the chest. In addition to the requirement of 5-20 clinically typical, visible and discrete AKs within the selected treatment area, subjects may also have visible and discrete hyperkeratotic/hypertrophic lesions in this area. The subjects will be treated with a dose of 0.018% as a once daily three consecutive days treatment and followed for 8 weeks.
The trial consists of an initial part, where 18 subjects will be treated on face/chest. […] As this is a safety trial, it is considered justified to conduct this clinical trial as an open-label, uncontrolled trial. An early safety and tolerability evaluation will be performed following the 3 days treatment. If safety and tolerability is found acceptable by the Early Data Review Committee, and additional 44 subjects will be enrolled in order to expand safety observations and obtain an estimate of treatment efficacy.
The patients are scheduled for 7 visits: • Visit 1: within 21 days prior to day 1 • Visit 2: day 1 (application of trial medication) • Visit 3: day 4 (application of trial medication) • Visit 4: day 8 (±2 day) • Visit 5: week 2 (±2 day) • Visit 6: week 4 (±4 day) • Visit 7: week 8 (±7 day)
LSRs are evaluated at all visits following visit 1.
LSRs are evaluated at all visits following visit 1. AK lesion counts are performed on Visit 2, 6 and 7.
At Baseline (Day 1) and Visit 7 (Week 8), the investigator will make a clinical (visual and tactile) assessment of the extent of photo-damage in the treatment area with respect to 1) fine wrinkling, 2) coarse wrinkling, 3) mottled pigmentation, 4) roughness, 5) sallowness, 6) skin laxity, and 7) telangiectasia. Severity for each of these characteristics will be on a 5-point scale: None (0), Mild (1), Moderate (2), Severe (3), Extreme (4).
At Visit 7 (Week 8) the Investigator will make an overall clinical (visual and tactile) assessment of the subject's photo-damage change from baseline in the treatment area (including an integrated assessment of fine wrinkling, coarse wrinkling, mottled pigmentation, roughness, sallowness, skin laxity, and telangiectasia based on the subject's appearance at the baseline visit).
The scoring will be on a 7-point symmetric scale: Marked improvement (+3), Moderate improvement (+2), Minor improvement (+1), No change (0), Minor worsening (−1), Moderate worsening (−2), Marked worsening (−3).
At Visit 7 (Week 8), the subjects will complete a self-assessment questionnaire evaluating the change in the 1) overall appearance of the skin and 2) overall feel of the skin after treatment. The scoring will be on a 5-point scale: Much worsened, Somewhat worsened, No change, somewhat improved, much improved. […]

[2] = test system: actinic keratosis; experiment: Part 1 dose escalation trial, once daily for two consecutive days, face/chest, actinic keratosis; assay type: in vivo, human subjects
Source text: Local skin reactions (LSRs) occur sometimes in the treated area. Often LSRs are quantified by a scale evaluating the following types of skin reactions: erythema, flaking/scaling, crusting, swelling, vasiculation/postulation, and erosion/ulceration which are categorized into categories 0-4 depending on the severity of the reactions.
In the trial pre-defined grades of LSRs will constitute Dose Limiting Toxicity.
Dose Limiting toxicity (DLT) is defined one or more of the following LSRs • crusting Grade 4 • Erosion/ulceration Grade 4 • vesiculation/postulation Grade 4 or
Two or more of the following five LSRs: • Erythema Grade 4 • Crusting Grade 3 • Swelling grade 4 • Erosion/ulceration Grade 3 • vesiculation/postulation Grade 3 or • other clinically relevant signs or symptoms observed, which the Investigator judges to be counted as a DLT.
Maximum tolerated dose (MTD) is declared as dose level at which less than 4 subjects out of experience a DLT of cohort of 12 subjects.
Part 1 was a dose escalation study conducted with a once daily application of trial medication for two consecutive days and continued until the MTD was identified.
Dose escalation proceeded if the safety and tolerability data of the subject up to day 8 was reviewed and considered satisfactory. The treatment consisted of once daily treatment for 2 consecutive days. Up to 5 different doses may be investigated in cohorts of 1 subject. The number of subjects in each cohort depended on the number of observed DLTs. However, the MTD was always be confirmed in a cohort of 12 subjects.
To be included in the trial, Part 1, the subjects must be at least 18 years of age.
Subjects who qualify for Part 1 of the trial must have 5 to 20 actinic keratosis on the face or chest. To be included in the trial part 2 the subjects must have 5-20 clinically typical, visible and discrete actinic keratosis on the face or chest
Part 1: Trial medication, ingenol 3-(3,5-diethylisoxazole-4-carboxylate) gel, will be applied to the treatment area once daily for two consecutive days until the maximum tolerated dose has been reached for each formulation. Up to five different doses of active compound in gel may be investigated in cohorts 12 subjects. Predefined grades of Local Skin Responses (LSRs) will constitute dose limiting toxicity (DLT). The maximum tolerated dose is defined as the highest dose level at which less than 4 out of 12 subjects experience a Dose limiting toxicity.
The doses will be administered in an escalating manner following review of safety and tolerability data performed by the dose escalation committee. Evaluation of the safety and tolerability data will be performed after Visit 5/day 8. Then subjects will be followed for 8 weeks after first application of investigational product.

[3] = test system: dermal tumours; experiment: in vivo studies in mice, effects on dermal tumours; conditions: compared with ingenol mebutate
Source text: The exact mechanism of action of ingenol 3-(3,5-diethylisoxazole-4-carboxylate) continues to be investigated, but it is believed that ingenol 3-(3,5-diethylisoxazole-4-carboxylate) has a dual mechanism of action inducing cell death as well as stimulation of immune response.

[4] = at 0.018% dose, two day regimen

CCc1noc(CC)c1C(=O)O[C@H]1C(C)=C[C@]23C(=O)[C@@H](C=C(CO)[C@@H](O)[C@]12O)[C@H]1[C@@H](C[C@H]3C)C1(C)C [ingenol 3-(3,5-diethylisoxazole-4-carboxylate)]
cosmetic outcome of the treatment [1]: good | side-effects [1]: acceptable | subjects reporting improvement in appearance and feel ([1]; cosmetic outcome self-assessment): more than 90% | patients with photo damage improved ([1]; investigator assessment, fraction of patients): two-thirds | time at which side-effects maximize ([1]; rapid decline thereafter): 4 days | complete clearance ([1]; week 4, 63 patients): 37% | reduction in AK count ([1]; week 4, 63 patients): 81% | complete clearance ([1]; week 8 (the same as week 4)): 37% | reduction in AK count ([1]; week 8 (the same as week 4)): 81% | application site adverse events [2, 4]: minimal | local skin reactions (LSRs) [2, 4]: mild | maximum tolerated dose (MTD) ([2]; gel, once daily for 2 consecutive days, face/chest, MTD = highest dose with DLT in less than 4 of 12 subjects): 0.018% | tolerability with respect to LSRs and application site reaction ([2]; selected dose 0.018%, two days dosing regimen): well tolerated | efficacy in eliminating dermal tumours [3]: more efficacious than ingenol mebutate
